Reference: ChEMBL document CHEMBL6109146, “Discovery of New Pyrazolone Carbothioamide Derivatives as Potent Antifungal Agents for the Treatment of Candidiasis and Cryptococcosis” (J Med Chem, 2025)
Values after ≈ are worked out from the molar mass of the structure shown. Active and inactive are the calls of the source. The rule behind the calls is not given here.

Columns and labels:
[1] = Tmax in male ICR mouse at 2 mg/kg, iv measured after 24 hrs by LC-MS/MS analysis; assay type: ADME, organism-based; settings: in vivo
[2] = AUC (0 to t) in male ICR mouse at 2 mg/kg, iv measured after 24 hrs by LC-MS/MS analysis; assay type: ADME, organism-based; settings: in vivo
[3] = AUC (0 to infinity) in male ICR mouse at 2 mg/kg, iv measured after 24 hrs by LC-MS/MS analysis; assay type: ADME, organism-based; settings: in vivo
[4] = Volume of distribution at steady state in male ICR mouse at 2 mg/kg, iv measured after 24 hrs by LC-MS/MS analysis; assay type: ADME, organism-based; settings: in vivo, read-out: Vdss
[5] = AUC (0 to t) in male ICR mouse at 20 mg/kg, po measured after 24 hrs by LC-MS/MS analysis; assay type: ADME, organism-based; settings: in vivo
[6] = test system: Candida albicans; experiment: Antifungal activity against Candida albicans SC5314 assessed as inhibition of fungal growth incubated for 48 to 72 hrs by microplate reader analysis; assay type: functional, organism-based; settings: time 48-72 hrs
[7] = test system: Cryptococcus neoformans; experiment: Antifungal activity against Cryptococcus neoformans 011409 assessed as inhibition of fungal growth incubated for 48 to 72 hrs by microplate reader analysis; assay type: functional; settings: time 48-72 hrs
[8] = test system: Cryptococcus neoformans; experiment: Antifungal activity against Cryptococcus neoformans HN-68 assessed as inhibition of fungal growth incubated for 48 to 72 hrs by microplate reader analysis; assay type: functional; settings: time 48-72 hrs
[9] = Antifungal activity against Cryptococcus gattii 01063P assessed as inhibition of fungal growth incubated for 48 to 72 hrs by microplate reader analysis; assay type: functional; settings: time 48-72 hrs
[10] = test system: Nakaseomyces glabratus; experiment: Antifungal activity against Candida glabrata 9256 assessed as inhibition of fungal growth incubated for 48 to 72 hrs by microplate reader analysis; assay type: functional; settings: time 48-72 hrs
[11] = Cytotoxicity against human L02 cells assessed as inhibition of cell proliferation incubated for 48 hrs by WST-8 reagent based assay; assay type: toxicity
[12] = Cytotoxicity against HUVEC cells assessed as inhibition of cell proliferation incubated for 48 hrs by WST-8 reagent based assay; assay type: toxicity; settings: human
[13] = test system: Nakaseomyces glabratus; experiment: Fungistatic activity against Candida glabrata 0161 assessed as inhibition of fungal growth at 0.031 microg/ml incubated up to 72 hrs by microplate reader analysis; assay type: functional, organism-based; settings: dose 0.031 µg/ml
[14] = test system: Nakaseomyces glabratus; experiment: Antifungal activity against Candida glabrata 0161 assessed as inhibition of fungal growth at 0.13 microg/ml incubated up to 72 hrs by microplate reader analysis relative to control; assay type: functional
[15] = test system: Cryptococcus neoformans; experiment: Antifungal activity against Cryptococcus neoformans H99 assessed as inhibition of fungal growth at 0.031 microg/ml incubated for 72 hrs by microplate reader analysis; assay type: functional, organism-based; settings: dose 0.031 µg/ml
[16] = test system: Cryptococcus neoformans; experiment: Antifungal activity against Cryptococcus neoformans H99 assessed as inhibition of fungal growth at 0.13 microg/ml incubated for 72 hrs by microplate reader analysis relative to control; assay type: functional
[17] = test system: Nakaseomyces glabratus; experiment: Antifungal activity against Candida glabrata 0161 assessed as inhibition of fungal growth at 32 microg/ml incubated for 48 hrs by spot-plating assay; assay type: functional, organism-based; settings: dose 32.0 µg/ml
[18] = test system: Cryptococcus neoformans; experiment: Antifungal activity against Cryptococcus neoformans H99 assessed as inhibition of fungal growth at 4 microg/ml incubated for 48 hrs by spot-plating assay; assay type: functional, organism-based; settings: dose 4.0 µg/ml
[19] = test system: Nakaseomyces glabratus; experiment: Antifungal activity against Candida glabrata 0161 assessed as inhibition of fungal growth at 0.5 to 32 microg/ml incubated for 48 hrs by spot-plating assay; assay type: functional, organism-based; settings: dose 0.5-32 µg/ml
[20] = test system: Cryptococcus neoformans; experiment: Inhibition of matured biofilm in Cryptococcus neoformans H99 at 2 to 32 microg/ml incubated for 24 hrs by XTT reagent based assay; assay type: functional, organism-based; settings: dose 2-32 µg/ml
[21] = test system: Cryptococcus neoformans; experiment: Inhibition of capsule formation in Cryptococcus neoformans H99 at 4 microg/ml incubated for 24 hrs by light microscopic analysis; assay type: functional, organism-based; settings: dose 4.0 µg/ml
[22] = test system: Cryptococcus neoformans; experiment: Inhibition of capsule formation in Cryptococcus neoformans H99 at 8 microg/ml incubated for 24 hrs by light microscopic analysis; assay type: functional
[23] = test system: Cryptococcus neoformans; experiment: Inhibition of urease production in Cryptococcus neoformans H99 at 0.125 microg/ml by photographic analysis relative to control; assay type: functional
[24] = test system: Cryptococcus neoformans; experiment: Inhibition of melanin production in Cryptococcus neoformans H99 at 0.125 microg/ml by photographic analysis relative to control; assay type: functional
[25] = test system: Cryptococcus neoformans; experiment: Induction of morphological changes in Cryptococcus neoformans H99 assessed as cell wall damage at 4 microg/ml incubated for 8 hrs by transmission electron microscopic analysis; assay type: functional, organism-based; settings: dose 4.0 µg/ml
[26] = test system: Cryptococcus neoformans; experiment: Induction of ROS accumulation in Cryptococcus neoformans H99 assessed as increase in intracellular ROS level by measuring intense green fluorescence at 4 microg/ml incubated for 24 hrs by DCFH-DA probe based fluorescence microscopic analysis; assay type: functional, organism-based; settings: dose 4.0 µg/ml
[27] = test system: Cryptococcus neoformans; experiment: Upregulation of CAT1 gene expression in Cryptococcus neoformans H99 at 4 microg/ml incubated for 8 hrs by qRT-PCR analysis; assay type: functional; settings: dose 4.0 µg/ml
[28] = test system: Cryptococcus neoformans; experiment: Upregulation of SOD1 gene expression in Cryptococcus neoformans H99 at 4 microg/ml incubated for 8 hrs by qRT-PCR analysis; assay type: functional; settings: dose 4.0 µg/ml
[29] = test system: Cryptococcus neoformans; experiment: Upregulation of TRR1 gene expression in Cryptococcus neoformans H99 at 4 microg/ml incubated for 8 hrs by qRT-PCR analysis; assay type: functional; settings: dose 4.0 µg/ml
[30] = test system: Nakaseomyces glabratus; experiment: Upregulation of CAT1 gene expression in Candida glabrata 0161 incubated for 8 hrs by qRT-PCR analysis; assay type: functional
[31] = Reduction in intracellular free iron ions level in Cryptococcus neoformans H99 at 4 microg/ml incubated for 24 hrs by absorbance based analysis relative to control; assay type: functional; parameters: scale not given: the % may be the effect or the level left; settings: dose 4 µg/ml
[32] = test system: Cryptococcus neoformans; experiment: Antifungal activity against Cryptococcus neoformans H99 assessed as inhibition of fungal growth by measuring fold increase in MIC in presence of Fe(II) ion; assay type: functional
[33] = test system: Cryptococcus neoformans; experiment: Antifungal activity against Cryptococcus neoformans H99 assessed as inhibition of fungal growth by measuring fold increase in MIC in presence of Fe(III) ion; assay type: functional
[34] = test system: Cryptococcus neoformans; experiment: Antifungal activity against Cryptococcus neoformans H99 infected in cryptococcosis female ICR mouse model assessed as reduction in fungal burden in brain at 20 mg/kg, po pre-infected with fungi for 3 hrs followed by compound administration and measured after 5 days; assay type: functional, organism-based; settings: time 5.0 day
[35] = test system: Cryptococcus neoformans; experiment: Antifungal activity against Cryptococcus neoformans H99 infected in cryptococcosis female ICR mouse model assessed as neat arrangement of neuronal cells at 5 to 20 mg/kg, ip pre-infected with fungi for 3 hrs followed by compound administration and measured after 5 days by H and E staining based analysis; assay type: functional, organism-based; settings: dose 5-20 mg/kg, time 5.0 day
[36] = test system: Cryptococcus neoformans; experiment: Antifungal activity against Cryptococcus neoformans H99 infected in cryptococcosis female ICR mouse model assessed as reduction in vacuolation in brain at 5 mg/kg, ip pre-infected with fungi for 3 hrs followed by compound administration and measured after 5 days by H and E staining based analysis; assay type: functional, organism-based; settings: time 5.0 day
[37] = test system: Cryptococcus neoformans; experiment: Antifungal activity against Cryptococcus neoformans H99 infected in cryptococcosis female ICR mouse model assessed as intact cellular structures in brain cortex at 20 mg/kg, ip pre-infected with fungi for 3 hrs followed by compound administration and measured after 5 days by H and E staining based analysis; assay type: functional, organism-based; settings: time 5.0 day
[38] = test system: Cryptococcus neoformans; experiment: Antifungal activity against Cryptococcus neoformans H99 infected in cryptococcosis female ICR mouse model assessed as reduction in cytoplasmic loosening at 20 mg/kg, ip pre-infected with fungi for 3 hrs followed by compound administration and measured after 5 days by H and E staining based analysis; assay type: functional, organism-based; settings: time 5.0 day

## Nc1cc(=O)n(C(=S)Nc2ccc(C3CCCCC3)cc2)[nH]1
[1]
  Tmax: 4.98 min
[2]
  AUC(0-t) at 24 h: 2040 ng·h/mL
[3]
  AUC(0-inf): 2100 ng·h/mL
[4]
  Vd: 1.47 L/kg
[5]
  AUC(0-t) at 24 h: 4600 ng·h/mL
[6]
  Activity: Active
[7]
  MIC80: 1.2 10^-4 ug/ml
[8]
  MIC80: 1.2 10^-4 ug/ml
[9]
  MIC80: 1.2 10^-4 ug/ml
[10]
  MIC80: 1.2 10^-4 ug/ml
[11]
  IC50 at 48 h: 13.9 µg/mL (≈ 44 µM)
[12]
  IC50 at 48 h: 0.64 µg/mL (≈ 2.02 µM)
[13]
  Activity: Active; Significantly Better Activity Observed Than Fluconazole At 8 Microg/Ml
[14]
  inhibition at 0.13 µg/mL: 100%
[15]
  Activity: Active; Significantly Better Inhibitory Effect Observed Than Fluconazole At 8.0 Microg/Ml
[16]
  inhibition at 0.13 µg/mL: 100%
[17]
  Activity: Moderate_effect
[18]
  Activity: Moderate_effect
[19]
  Activity: Active
[20]
  inhibition: Active; Better Inhibitory Effect Observed Under High Concentration
[21]
  inhibition: Active
[22]
  inhibition at 8 µg/mL: 100%
[23]
  inhibition at 0.125 µg/mL: 100%
[24]
  inhibition at 0.125 µg/mL: 100%
[25]
  Activity: inactive
[26]
  Activity: Active
[27]
  Activity: Active
[28]
  Activity: Active
[29]
  Activity: Active
[30]
  Activity: Active
[31]
  Activity: ~80%
[32]
  fold change (FC): ~1000
[33]
  fold change (FC): ~1000
[34]
  Activity: Active
[35]
  Activity: Active
[36]
  Activity: Not active; Slight Vacuolation Observed
[37]
  Activity: Active
[38]
  Activity: Active
